# Results as given in ChEMBL document CHEMBL3407459, “Synthesis and antimicrobial activity of novel structural hybrids of benzofuroxan and benzothiazole derivatives” (2015).
# Assays:
# Escherichia coli [1] = assay: Antibacterial activity against Escherichia coli MG1655 harboring pColD-lux assessed as maximum induction factor at 10^-9 M after 120 mins by luminometric analysis; format: functional, K-12 substr. MG1655
# Escherichia coli [2] = assay: Antibacterial activity against Escherichia coli MG1655 harboring pRecA-lux assessed as maximum induction factor at 10^-5 M after 120 mins by luminometric analysis; format: functional, K-12 substr. MG1655
# Escherichia coli [3] = assay: Antibacterial activity against Escherichia coli MG1655 harboring pKatG-lux assessed as maximum induction factor at 10^-3 M after 120 mins by luminometric analysis; format: functional, K-12 substr. MG1655
# Escherichia coli [4] = assay: Antibacterial activity against Escherichia coli MG1655 harboring pSoxS-lux assessed as maximum induction factor at 10^-6 M after 120 mins by luminometric analysis; format: functional, K-12 substr. MG1655
# Escherichia coli [5] = assay: Antibacterial activity against Escherichia coli MG1655 harboring pXen7 assessed as toxicity index at 10^-9 M measured for 2 hrs by luminometric analysis; format: functional, K-12 substr. MG1655
# Escherichia coli [6] = assay: Antibacterial activity against Escherichia coli MG1655 harboring pXen7 assessed as toxicity index at 10^-7 M measured for 2 hrs by luminometric analysis; format: functional, K-12 substr. MG1655
# Escherichia coli [7] = assay: Antibacterial activity against Escherichia coli MG1655 harboring pGrpE-lux assessed as maximum induction factor at 10^-10 M after 120 mins by luminometric analysis; format: functional, K-12 substr. MG1655
# Vibrio sp. [8] = assay: Antibacterial activity against Vibrio aqamarinus VKPM B-11245 assessed as toxicity index at 10^-7 M measured for 2 hrs by luminometric analysis; format: functional
# Escherichia coli [9] = assay: Antibacterial activity against Escherichia coli MG1655 harboring pSoxS-lux assessed as maximum induction factor at 10^-5 M after 120 mins by luminometric analysis; format: functional, K-12 substr. MG1655
# Vibrio sp. [10] = assay: Antibacterial activity against Vibrio aqamarinus VKPM B-11245 assessed as toxicity index at 10^-11 M measured for 2 hrs by luminometric analysis; format: functional
# Escherichia coli [11] = assay: Antibacterial activity against Escherichia coli MG1655 harboring pSoxS-lux assessed as maximum induction factor at 10^-10 M after 120 mins by luminometric analysis; format: functional, K-12 substr. MG1655
# Escherichia coli [12] = assay: Antibacterial activity against Escherichia coli MG1655 harboring pSoxS-lux assessed as maximum induction factor at 10^-7 M after 120 mins by luminometric analysis; format: functional, K-12 substr. MG1655
# Escherichia coli [13] = assay: Antibacterial activity against Escherichia coli MG1655 harboring pKatG-lux assessed as maximum induction factor at 10^-4 M after 120 mins by luminometric analysis; format: functional, K-12 substr. MG1655
# Escherichia coli [14] = assay: Antibacterial activity against Escherichia coli MG1655 harboring pRecA-lux assessed as maximum induction factor at 10^-13 M after 120 mins by luminometric analysis; format: functional, K-12 substr. MG1655
# Escherichia coli [15] = assay: Antibacterial activity against Escherichia coli MG1655 harboring pSoxS-lux assessed as maximum induction factor at 10^-9 M after 120 mins by luminometric analysis; format: functional, K-12 substr. MG1655
# Escherichia coli [16] = assay: Antibacterial activity against Escherichia coli MG1655 harboring pRecA-lux assessed as maximum induction factor at 10^-12 M after 120 mins by luminometric analysis; format: functional, K-12 substr. MG1655
# Escherichia coli [17] = assay: Antibacterial activity against Escherichia coli MG1655 harboring pGrpE-lux assessed as maximum induction factor at 10^-7 M after 120 mins by luminometric analysis; format: functional, K-12 substr. MG1655
# Escherichia coli [18] = assay: Antibacterial activity against Escherichia coli MG1655 harboring pColD-lux assessed as maximum induction factor at 10^-12 M after 120 mins by luminometric analysis; format: functional, K-12 substr. MG1655
# [19] = Activation of quorum sensing system luxR in Escherichia coli MG1655 harboring pVFR1-lux assessed as maximum induction factor at 10^-9 M after 120 mins by luminometric analysis; settings: Escherichia coli str. K-12 substr. MG1655
# Escherichia coli [20] = assay: Antibacterial activity against Escherichia coli MG1655 harboring pColD-lux assessed as maximum induction factor at 10^-10 M after 120 mins by luminometric analysis; format: functional, K-12 substr. MG1655
# Escherichia coli [21] = assay: Antibacterial activity against Escherichia coli MG1655 harboring pXen7 assessed as toxicity index at 10^-13 M measured for 2 hrs by luminometric analysis; format: functional, K-12 substr. MG1655
# Escherichia coli [22] = assay: Antibacterial activity against Escherichia coli MG1655 harboring pXen7 assessed as toxicity index at 10^-10 M measured for 2 hrs by luminometric analysis; format: functional, K-12 substr. MG1655
# Escherichia coli [23] = assay: Antibacterial activity against Escherichia coli MG1655 harboring pKatG-lux assessed as maximum induction factor at 10^-9 M after 120 mins by luminometric analysis; format: functional, K-12 substr. MG1655
# Vibrio sp. [24] = assay: Antibacterial activity against Vibrio aqamarinus VKPM B-11245 assessed as toxicity index at 10^-6 M measured for 2 hrs by luminometric analysis; format: functional
# [25] = Activation of quorum sensing system luxR in Escherichia coli MG1655 harboring pVFR1-lux assessed as maximum induction factor at 10^-6 M after 120 mins by luminometric analysis; settings: Escherichia coli str. K-12 substr. MG1655
# Escherichia coli [26] = assay: Antibacterial activity against Escherichia coli MG1655 harboring pColD-lux assessed as maximum induction factor at 10^-7 M after 120 mins by luminometric analysis; format: functional, K-12 substr. MG1655
# Escherichia coli [27] = assay: Antibacterial activity against Escherichia coli MG1655 harboring pRecA-lux assessed as maximum induction factor at 10^-6 M after 120 mins by luminometric analysis; format: functional, K-12 substr. MG1655
# [28] = Activation of quorum sensing system luxR in Escherichia coli MG1655 harboring pVFR1-lux assessed as maximum induction factor at 10^-13 M after 120 mins by luminometric analysis; settings: Escherichia coli str. K-12 substr. MG1655
# Escherichia coli [29] = assay: Antibacterial activity against Escherichia coli MG1655 harboring pGrpE-lux assessed as maximum induction factor at 10^-12 M after 120 mins by luminometric analysis; format: functional, K-12 substr. MG1655
# [30] = Activation of quorum sensing system luxR in Escherichia coli MG1655 harboring pVFR1-lux assessed as maximum induction factor at 10^-7 M after 120 mins by luminometric analysis; settings: Escherichia coli str. K-12 substr. MG1655
# Escherichia coli [31] = assay: Antibacterial activity against Escherichia coli MG1655 harboring pSoxS-lux assessed as maximum induction factor at 10^-3 M after 120 mins by luminometric analysis; format: functional, K-12 substr. MG1655
# Vibrio sp. [32] = assay: Antibacterial activity against Vibrio aqamarinus VKPM B-11245 assessed as toxicity index at 10^-13 M measured for 2 hrs by luminometric analysis; format: functional
# Escherichia coli [33] = assay: Antibacterial activity against Escherichia coli MG1655 harboring pIbpA-lux assessed as maximum induction factor at 10^-8 M after 120 mins by luminometric analysis; format: functional, K-12 substr. MG1655
# Escherichia coli [34] = assay: Antibacterial activity against Escherichia coli MG1655 harboring pColD-lux assessed as maximum induction factor at 10^-3 M after 120 mins by luminometric analysis; format: functional, K-12 substr. MG1655
# Escherichia coli [35] = assay: Antibacterial activity against Escherichia coli MG1655 harboring pGrpE-lux assessed as maximum induction factor at 10^-9 M after 120 mins by luminometric analysis; format: functional, K-12 substr. MG1655
# [36] = Activation of quorum sensing system luxR in Escherichia coli MG1655 harboring assessed as maximum induction factor at 10^-4 M after 120 mins by luminometric analysis; settings: Escherichia coli str. K-12 substr. MG1655
# Escherichia coli [37] = assay: Antibacterial activity against Escherichia coli MG1655 harboring pIbpA-lux assessed as maximum induction factor at 10^-10 M after 120 mins by luminometric analysis; format: functional, K-12 substr. MG1655
# Escherichia coli [38] = assay: Antibacterial activity against Escherichia coli MG1655 harboring pSoxS-lux assessed as maximum induction factor at 10^-12 M after 120 mins by luminometric analysis; format: functional, K-12 substr. MG1655
# Escherichia coli [39] = assay: Antibacterial activity against Escherichia coli MG1655 harboring pKatG-lux assessed as maximum induction factor at 10^-14 M after 120 mins by luminometric analysis; format: functional, K-12 substr. MG1655
smiles,measurement,setting,value
O=[N+]([O-])c1cc([N+](=O)[O-])c2no[n+]([O-])c2c1Sc1nc2ccccc2s1,Activity,Escherichia coli [1],1.05
same,Activity,Escherichia coli [2],0.93
same,Activity,Escherichia coli [3],0.18
same,Activity,Escherichia coli [4],1.28
same,Activity,Escherichia coli [5],0
same,Activity,Escherichia coli [6],0
same,Activity,Escherichia coli [7],1.15
same,Activity,Vibrio sp. [8],22.52
same,Activity,Escherichia coli [9],0.99
same,Activity,Vibrio sp. [10],19.14
same,Activity,Escherichia coli [11],1.33
same,Activity,Escherichia coli [12],1.02
same,Activity,Escherichia coli [13],0.3
same,Activity,Escherichia coli [14],0.98
same,Activity,Escherichia coli [15],1.08
same,Activity,Escherichia coli [16],0.94
same,Activity,Escherichia coli [17],1.02
same,Activity,Escherichia coli [18],1.1
same,Activity,[19],1.74
same,Activity,Escherichia coli [20],1.04
same,Activity,Escherichia coli [21],0
same,Activity,Escherichia coli [22],3.82
same,Activity,Escherichia coli [23],0.96
same,Activity,Vibrio sp. [24],73.17
same,Activity,[25],3.03
same,Activity,Escherichia coli [26],1.07
same,Activity,Escherichia coli [27],0.92
same,Activity,[28],1.77
same,Activity,Escherichia coli [29],1.31
same,Activity,[30],1.71
same,Activity,Escherichia coli [31],1.8
same,Activity,Vibrio sp. [32],3.44
same,Activity,Escherichia coli [33],1.18
same,Activity,Escherichia coli [34],0.08
same,Activity,Escherichia coli [35],1.03
same,Activity,[36],0.99
same,Activity,Escherichia coli [37],1.14
same,Activity,Escherichia coli [38],1.41
same,Activity,Escherichia coli [39],0.78
